A short description of series [1]: In vivo pharmacokinetics of I-28 and its metabolite I-45 in mice (i.v. and p.o.). Details: species or system Male C57 BL/6 mice. How it is done: Male C57 BL/6 mice (25-30 g) from Charles River Labs were acclimatized for a minimum of 5 days prior to dosing. Body weights were recorded on the day of dosing.
Animals dosed p.o. were deprived of food overnight and fed ˜2 h following dosing.
Formulations were administered intravenously (i.v.) via the tail vein or orally (p.o.) by gavage with disposable feeding needles.
Serial blood samples were collected via tail snip. Terminal blood samples were collected under isoflurane anesthesia by cardiac puncture.
All blood samples were transferred into K2EDTA tubes on wet ice and centrifuged within 5 min (3200×g for 5 min at 4° C.) to obtain plasma. Plasma were stored at −80° C. until analysis.
AB Sciex QTRAP 4000 or 6500 MS/MS system equipped with an LC system with a binary pump, a solvent degasser, a thermostated column compartment and a multiplate autosampler. i. Analysis software: Phoenix® WinNonlin® 8.2 (Pharsight, Certara, Mountainview, Calif.) ii. Analysis methods: non-compartmental analysis, linear up/log down trapezoidal rule iii. PK parameters: C0, t1/2, AUC0-tlast, AUC0-∞, CL, VSS, MRT, tmax(po), Cmax(po), F, as appropriate C0 concentration extrapolated to time zero following an i.v. dose tmax time at which maximum concentration is observed Cmax maximum observed concentration Apparent t1/2 apparent terminal half-life area under the concentration vs time curve from time 0 to the time of the last AUC0-tlast measurable concentration AUC0-inf area under the concentration vs time curve from time 0 to infinity CL systemic clearance MRT0-inf mean residence time from time zero to infinity VSS steady-state volume of distribution F bioavailability=(Dose^iv*AUC^po)/(Dose^po*AUC^iv)*100

A short description of series [2]: Liver microsomes stability, mouse. Conditions: for half-life at 2 μM / microsomal CLint at 2 μM: male, mouse, microsomes; for Remaining Percentage (%) after 60 min Mouse: with NADPH, 2 μM, 0.5 mg/mL microsomes. How it is done:
(§1) The objective of this study was to estimate in vitro metabolic stability of I-12 in pooled human, male rat and male mouse liver microsomes. The concentrations of parent compounds in reaction systems were evaluated by LC-MS/MS for estimating the stability in pooled human, male rat and male mouse liver microsomes. The in vitro intrinsic clearances of test compounds were determined as well.
(§2) A master solution in the “Incubation Plate” containing phosphate buffer, ultra-pure H2O, MgCl2 solution and liver microsomes was made according to Table-3. The mixture was pre-warmed at 37° C. water bath for 5 minutes.
(§3) 40 μL of 10 mM NADPH solution was added to each well. The final concentration of NADPH was 1 mM. The negative control samples were prepared by replacing NADPH with 40 μL of ultra-pure H2O. Samples were prepared in duplicate. Negative controls were prepared in singlet.
(§4) The reaction was started with the addition of 4 μL of 200 μM exemplary test compounds of the application or control compounds to each master solution to get the final concentration of 2 μM. This study was performed in duplicate.
(§5) Aliquots of 50 μL were taken from the reaction solution at 0, 15, 30, 45 and 60 minutes. The reaction solutions were stopped by the addition of 4 volumes of cold methanol with IS (100 nM alprazolam, 200 nM imipramine, 200 nM labetalol and 2 μM ketoprofen). Samples were centrifuged at 3,220 g for 40 minutes. Aliquot of 90 μL of the supernatant was mixed with 90 μL of ultra-pure H2O and then was used for LC-MS/MS analysis.
(§6) LC/MS analysis was performed for all samples from this study using a Shimadzu liquid chromatograph separation system equipped with degasser DGU-20A5R; solvent delivery unit LC-30AD; system controller SIL-30AC; column oven CTO-30A; CTC Analytics HTC PAL System. Mass spectrometric analysis was performed using an Triple Quad™ 5500 instrument.
(§7) All calculations were carried out using Microsoft Excel. Peak area ratios of test compound to internal standard (listed in the below table) were determined from extracted ion chromatograms.
(§8) All calculations were carried out using Microsoft Excel. Peak areas were determined from extracted ion chromatograms. The slope value, k, was determined by linear regression of the natural logarithm of the remaining percentage of the parent drug vs. incubation time curve.
(§9) Conversion of the in vitro t1/2 (min) into the in vitro intrinsic clearance (in vitro CLint, in μL/min/mg proteins) was done using the following equation (mean of duplicate determinations): […]
Background: Microsomes from liver hold many membrane-bound enzymes, among them those of drug oxidation.

Series [3] in a line: Liver microsomes stability, human. Conditions: for half-life at 2 μM / microsomal CLint at 2 μM: microsomes; for Remaining Percentage (%) after 60 min Human: with NADPH, 2 μM, 0.5 mg/mL microsomes. How it is done: as §1, §2, §3, §4, §5, §6, §7, §8, §9
The nature of series [4]: Liver microsomes stability, rat. To be noted: for half-life at 2 μM / microsomal CLint at 2 μM: male, rat, microsomes; for Remaining Percentage (%) after 60 min Rat: with NADPH, 2 μM, 0.5 mg/mL microsomes. How it is done:
as §1, §2, §3, §4, §5, §6, §7, §8, §9

Series [5] addresses human 5-HT2A (h5-HT2A) receptor (Homo sapiens (Human), UniProt P28223). The experiment in a line: FLIPR assay, human 5-HT2A receptor under agonist mode. The format is cell-based. How it is done: • I. Assessment of the activated effect of exemplary compounds of Formula I targeting on human 5-HT2A (h5-HT2A) receptor under agonist mode: Compound Preparation and Assay Controls I.a. Reagent and Materials:
1. Culture the cells in cell culture medium (DMEM containing 10% FBS 1× penicillin-streptomycin 300 μg/ml G418 and 100 μg/ml hygromycin B) at 37° C., 5% (v/v) CO2.
2. One day before the assays, detach the cell using TrypLE™ Express and count cells using cell counter.
3. Seed 20000 cells/well in 30 μl/well culture medium to a 384-well cell plate and incubate the cells overnight at 37° C., 5% (v/v) CO2.
4. On the assay day, prepare 2× dye solution following the manual of the FLIPR® Calcium 6 Assay Kit: i. Dilute the dye with assay buffer (20 mM HEPES in 1×HBSS, PH7.4); ii. Add probenecid to the final concentration of 5 mM; iii. Vortex vigorously for 1-2 minutes.
5. Medium from cell plate by flicking the cell plate on towel papers.
6. Add 10 μl of assay buffer and 10 μl of 2× dye solution to each well of the cell plate.
7. Put the cell plate on plate shaker, agitate the plate at 600 rpm for 2 minutes. Incubate the plate at 37° C. for 2 hours followed by additional 15-minute incubation at 25° C.
8. Prepare 3× compound in assay buffer: a. Dilute reference compounds to required concentration with DMSO. Add the compounds to a 384-well compound plate; b. Perform serial dilutions; c. Add 10 mM test compounds to the compound plate, perform 3-fold serial dilutions. d. […] Add 20 μl/well assay buffer to the compound plate; f. Mix the plate on plate shaker for 2 mins;
i. The normalized fluorescence reading (RFU) is calculated as shown follow, while Fmax and Fmin stand for maximum and minimum of calcium signal during defined time window: RFU=Fmax−Fmin
ii. Calculate the percentage activation by using following equation: […]
iii. Calculate EC50 by fitting % activation against log of compound concentrations with Hill equation using XLfit.

Where [6] appears, read: male, C57 BL/6, iv, i.v., I-28 2.2 mg/kg, I-28 in mouse plasma, n = 2.
Setting [7] is: i.v., Metabolite (I-45) alone 1 mg/kg, mouse plasma.
Where [8] appears, read: p.o., Metabolite (I-45) alone 10 mg/kg, mouse plasma.

SMILES strings stand for the structures.

On to `[2H]C([2H])([2H])N(C([2H])([2H])[2H])C([2H])([2H])C([2H])([2H])c1c[nH]c2cccc(OC(=O)CCCCCCC/C=C\C/C=C\CCCCC)c12` [Compound I-28, 3-(2-(bis(methyl-d3)amino)ethyl-1,1,2,2-d4)-1H-indol-4-yl (9Z,12Z)-octadeca-9,12-dienoate], for which, in series [1] (i.v., I-28 2.2 mg/kg, I-28 in mouse plasma, n = 2), the “AUC0-inf/Dose (h*kg*ng/mL/mg)” value is 62.1 (n = 2) h*kg*ng/mL/mg. For the same compound, the C0 in series [1] (male, C57 BL/6, iv, i.v., I-28 2.2 mg/kg (equimolar to 1 mg/kg metabolite), I-28 in mouse plasma) was found to be 448 ± 411 ng/mL. Moreover, in series [1] (setting [6]), the AUC(0-inf) (in general, the area under the concentration-time curve extrapolated to infinity) came to 137 ng·h/mL and the clearance is 385 mL/min/kg. For the same compound, in series [1] (male, C57 BL/6, iv, i.v., I-28 2.2 mg/kg, I-28 in mouse plasma, n = 2, read-out: Apparent t1/2 (converted)), the half-life was 4.92 h. Also, the MRT inf in series [1] (male, C57 BL/6, iv, i.v., I-28 2.2 mg/kg, I-28 in mouse plasma, n = 2, read-out: MRT0-inf) stood at 0.977 h. In addition, the Vd in series [1] (male, C57 BL/6, iv, i.v., I-28 2.2 mg/kg, I-28 in mouse plasma, n = 2, read-out: VSS) stood at 17 L/kg. Moreover, the AUC(0-t) in series [1] (male, C57 BL/6, iv, i.v., I-28 2.2 mg/kg, I-28 in mouse plasma, read-out: AUC0-tlast) is 110 ± 85.9 ng·h/mL. The Tmax (in general, the time from dosing to the highest level) in series [1] (male, C57 BL/6, po, p.o., I-28 22 mg/kg (equimolar to 10 mg/kg metabolite), I-28 in mouse plasma) worked out at 2.17 ± 3.32 h. Moreover, in series [1] (male, C57 BL/6, po, p.o., I-28 22 mg/kg, I-28 in mouse plasma), the Cmax (commonly the peak of the concentration-time curve) came out at 1.06 ± 0.447 ng/mL. Further, the “Cmax/Dose” value in series [1] (p.o., I-28 22 mg/kg, I-28 in mouse plasma) stood at 0.0482 ± 0.0203 kg·ng/mL/mg. Moreover, in series [2], the half-life at 2 μM came out at 0.276 h; the microsomal CLint – broadly, the capacity of the preparation to metabolise the compound, expressed as a volume cleared per time – at 2 μM came out at 83.7 µL/min/mg; the “Remaining Percentage (%) after 60 min Mouse” value is on record as 8.12%. In series [3] (human), this compound displayed a half-life at 2 μM of 2.23 h and an intrinsic metabolic clearance (microsomal CLint) at 2 μM of 10.4 µL/min/mg. Besides, the “metabolic stability in liver microsomes (in words)” value in series [3] (human, rat and mouse liver microsomes, 60 minute) is on record as “rapidly metabolized”. For the same compound, the “Remaining Percentage (%) after 60 min Human” value in series [3] stood at 73.27%. In series [4], the half-life at 2 μM was 0.659 h, the microsomal CLint at 2 μM was 35.1 µL/min/mg and the “Remaining Percentage (%) after 60 min Rat” value was found to be 34.92%. Moreover, the EC50 (commonly the concentration at which the effect is half-maximal) in series [5] came to 965 nM.
In the case of `[2H]C([2H])([2H])N(C([2H])([2H])[2H])C([2H])([2H])C([2H])([2H])c1c[nH]c2cccc(O)c12` [Compound I-45, 3-(2-(bis(methyl-d3)amino)ethyl-1,1,2,2-d4)-1H-indol-4-ol], in series [1] (setting [7]), the “AUC0-inf/Dose” value came out at 181 ± 30.8 kg·ng·h/mL/mg and the “Apparent t1/2” value is 5.32 ± 2.99 h. The C0 in series [1] (male, C57 BL/6, mouse, plasma, iv, 1 mg/kg) stood at 566 ± 85 ng/mL. For the same compound, in series [1] (setting [8]), the “AUC0-inf/Dose” value stood at 79.5 ± 12.1 kg·ng·h/mL/mg, the “Apparent t1/2” value is on record as 4.52 ± 0.481 h and the “Cmax/Dose” value is 70.4 ± 12.8 kg·ng/mL/mg. In series [2], the half-life at 2 μM was 4.09 h, the microsomal CLint at 2 μM was determined as 5.65 µL/min/mg and the “Remaining Percentage (%) after 60 min Mouse” value came to 84.40%. In series [3] (human), this compound yielded a half-life at 2 μM of 5.01 h and a microsomal CLint at 2 μM of 4.61 µL/min/mg. Moreover, the “Remaining Percentage (%) after 60 min Human” value in series [3] is on record as 87.08%. In addition, in series [4], the half-life at 2 μM worked out at 1.76 h, the microsomal CLint at 2 μM turned out to be 13.1 µL/min/mg and the “Remaining Percentage (%) after 60 min Rat” value was 67.47%. Besides, in series [5] (agonist mode, FLIPR), the “agonist effect on h5-HT2A receptor (in words)” value was “active agonist”.

Source of the values: patent publication US11591353B2 (Mindset Pharma Inc., priority 2020, dated 2023).
